Source: patent publication US20210177814A1, “USE OF GUANABENZ OR DERIVATES THEREOF FOR THE TREATMENT OF TYPE I IFN-DEPENDENT PATHOLOGIES” (INSERM (Institut National de la Santé et de la Recherche …, priority 2018, published 2021)
Entries after “also recorded” stand apart in the source; their conditions may differ.

Assays:
[1] = mouse, cited from earlier work
TLR9 = target: T1, TLR9 (Mus musculus, UniProt Q9EQU3); experiment: Cytokine production and gene expression in sorted Flt3L-DC pDCs activated with CpG ODN 1585; format: cell-based
T1 construct: from tissue; host or cells: whole animal: C57BL/6, FVB and FVB GADD34ΔC/ΔC mice
T1 sequence (Q9EQU3 26-1032): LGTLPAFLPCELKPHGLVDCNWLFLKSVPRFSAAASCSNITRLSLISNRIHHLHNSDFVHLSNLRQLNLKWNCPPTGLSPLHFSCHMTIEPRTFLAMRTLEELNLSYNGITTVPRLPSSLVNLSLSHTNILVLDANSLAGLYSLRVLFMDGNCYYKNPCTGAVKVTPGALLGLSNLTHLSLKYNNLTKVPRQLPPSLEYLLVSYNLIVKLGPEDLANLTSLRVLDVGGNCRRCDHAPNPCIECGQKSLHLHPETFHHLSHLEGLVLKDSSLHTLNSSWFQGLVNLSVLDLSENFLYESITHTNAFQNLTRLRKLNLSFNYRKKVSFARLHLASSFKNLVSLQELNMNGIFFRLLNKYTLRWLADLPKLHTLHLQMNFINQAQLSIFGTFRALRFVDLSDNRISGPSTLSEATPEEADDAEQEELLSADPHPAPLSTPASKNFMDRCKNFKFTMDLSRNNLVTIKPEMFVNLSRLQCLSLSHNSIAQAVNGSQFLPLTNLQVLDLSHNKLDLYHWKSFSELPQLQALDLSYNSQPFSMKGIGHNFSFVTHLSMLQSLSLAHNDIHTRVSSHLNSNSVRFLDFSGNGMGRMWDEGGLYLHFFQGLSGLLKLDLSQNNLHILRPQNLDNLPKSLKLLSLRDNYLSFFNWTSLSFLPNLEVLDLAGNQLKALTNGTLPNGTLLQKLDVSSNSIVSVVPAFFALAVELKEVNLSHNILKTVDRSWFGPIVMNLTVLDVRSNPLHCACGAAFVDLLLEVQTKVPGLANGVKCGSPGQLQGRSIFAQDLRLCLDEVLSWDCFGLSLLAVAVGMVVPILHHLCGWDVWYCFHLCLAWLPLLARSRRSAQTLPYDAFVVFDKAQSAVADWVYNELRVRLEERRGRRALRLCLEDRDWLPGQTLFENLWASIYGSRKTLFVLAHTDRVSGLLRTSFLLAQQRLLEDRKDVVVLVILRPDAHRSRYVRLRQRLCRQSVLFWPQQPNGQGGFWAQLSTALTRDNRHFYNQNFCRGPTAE
Experimental: FIG. 1: Guanabenz inhibits TLR3 and TLR9 activation in mouse Flt3-L DCs and human blood pDCs. A) Sorted bone marrow derived Flt3L-DCs were activated for 6 h with 10 μg/mL poly I:C LMW (TLR3 in DC1) or 1 μM ODN 1585 (TLR9 in pDCs). GBZ was added at 50 μM and inhibited IFN-β and Interleukin-6 (IL-6) production in activated cells. B) […], hTLR3, hTLR9 and hTLR7 expressed in the reporter HEK-Blue™ cells are inhibited by GBZ. TLR-expressing HEK-Blue™ cells were respectively activated with 100 ng/mL LPS, 10 μg/mL poly I:C LMW, 2.5 μM ODN 2006 or 5 μg/mL imiquimod, respectively. GBZ was added at 50 μM. TLR activity was measured indirectly through SEAP activity as absorbance at 405 nm. GBZ inhibited human TLR3, TLR7 and TLR9 signaling, but not TLR4._C) Human primary pDCs were isolated from blood and activated either with 3 μM CpG ODN 2216 (top) or with 2% of anti-DNA IgG containing serum from lupus patients (bottom). GBZ was added at 50 μM. Protein concentration of IFN-α and TNF-α secreted were measured at the indicated time points or at 16 h. Statistical significance was assigned using two tailed t-test on at least n=3 independent experiments (* p<0.05; ** p<0.005; ***p<0.0005).
BM-derived DCs were differentiated in vitro from the bone marrow of 6-8 weeks old male mice, using either FLT3 ligand or GM-CSF. Flt3L-DCs were used for experiments between days 6 and 7. Flt3L was produced using B16-Flt3L hybridoma cells. Bone marrow progenitors were plated at 1.5 10^6 cells/ml, 4 ml/well in 6 well plate, and cultivated with RPMI (GIBCO), 10% FCS (Sigma Aldrich), 100 units/ml penicillin and 100 μg/ml streptomycin (GIBCO), 50 μM b-mercaptoethanol (VWR) and Flt3L. For sorted Flt3L-DCs, cells were gently harvested at day 7 with cold PBS 2% FCS, centrifuged 1200 rpm 5 min at 4° C., counted and stained with for 30 mins at 4° C. Cells were sorted with the FACS ARIASorp. Cells were kept on ice all the time. […]
ODN 2006, 2216, 1585 and 1826, Poly I:C High and Low Molecular Weight are from InvivoGen, San Diego, Calif.; lipopolysaccharide (Escherichia coli 055:B5), clonidine, chloroquine, D-(+)-Galactosamine hydrochloride and 25-HC are from Sigma Aldrich; Guanabenz is from Tocris Bioscience. For quantitative PCR, total RNAs were extracted and purified using the RNeasy Mini Kit (Qiagen). […] Each gene transcripts were quantified by SYBR Green method with 7500Fast (Applied Biosystems). The relative amount of each transcript was determined by normalizing to internal housekeeping gene expression.
Mouse IFN-β quantification in culture supernatant was performed using the Mouse Interferon Beta ELISA kit (PBL InterferonSource); mouse IL-6, TNFα, IL-10, human TNFα and human IFNα were quantified using ELISA kit (eBioscience) respectively, according to manufacturer instructions. […]

[2] = sorted pDCs, 1 μM ODN 1585 6 h, GBZ 50 μM

NC(N)=N/N=C/c1c(Cl)cccc1Cl [GBZ, 2-(2,6-dichlorobenzylidene)-hydrazinecarboximidamide]
spinal cord accumulation ([1]; several hours after single i.p. bolus 2 mg/kg): approximately 7 μM
plasma half-life ([1]; single i.p. bolus 2 mg/kg): 1.8 h
transcriptional response to CpG ODN (ifna4, Tnfa, isg15, Il12 by qPCR) (TLR9; pDC, data not shown): inhibited completely
impact on cell fitness (TLR9; sorted cDC1 and pDCs treated with GBZ): without any impact
IFN-β production (TLR9; [2]): nearly abrogated; also recorded: inhibited
IL-6 production (TLR9; [2]): nearly abrogated; also recorded: inhibited
